Read-outs that look alike come from different tables or passages of the source.

The test addresses T1, binding between NRF2 and KEAP1 (biotinylated human KEAP1 protein (Kelch domain), TAMRA-labeled NRF2 peptide) (Homo sapiens, UniProt Q14145).
T1 construct: biotinylated human KEAP1 protein (Kelch domain); biotin (biotinylated)
Description: Measurement of activity of inhibiting NRF2 binding (NRF2-KEAP1 TR-FRET). The note with it: for inhibition at 0.1 µM: read-out: NRF2 binding inhibitory activity (at 100 nM). The protocol: Test Example 1: Measurement of Activity of Inhibiting NRF2 Binding
The inhibitory activity of test compounds against the binding between NRF2 and KEAP1 was measured by Time Resolved Fluorescence Resonance Energy Transfer (TR-FRET) method. Into a 384 well plate, 2 μL of a compound, 2 μL of 2 nM solution of biotinylated human KEAP1 protein (Kelch domain), 2 μL of 14 nM solution of TAMRA-labeled NRF2 peptide (TAMRA-Abu(4)-VWYTDIRMRDWM-OH), and 2 μL of 2 nM solution of Tb-labeled streptavidin, all solutions diluted with assay buffer (25 mM HEPES, pH7.5, 150 mM NaCl, 0.01% Tween-20), were added. For some wells, the KEAP1 protein was not added to define control wells. The plate was incubated at room temperature for 60 minutes, and time-resolved fluorescence was measured with a plate reader Envision (manufactured by PerkinElmer). The inhibitory activity for each compound at a compound concentration of 100 nM were calculated as a relative activity value by setting the fluorescence intensity of control wells to which the KEAP1 protein was not added as 100% inhibition, and the fluorescence intensity of wells to which no compound was added as 0%.
The measurement results according to the method described above (inhibition rate of signal value relative to control at 100 nM of test compound) are shown in Table 3.
(In general: In TR-FRET formats the signal depends on donor and acceptor labels being close together.)

Where [1] appears, read: inhibition rate relative to control at 100 nM test compound, TR-FRET, 60 min at room temperature.
The mark [2] stands for this setting: inhibition rate relative to control at 100 nM test compound, TR-FRET, 60 min at room temperature, 0.1 µM.

T1 sequence (Q14145 321-609 limits assumed): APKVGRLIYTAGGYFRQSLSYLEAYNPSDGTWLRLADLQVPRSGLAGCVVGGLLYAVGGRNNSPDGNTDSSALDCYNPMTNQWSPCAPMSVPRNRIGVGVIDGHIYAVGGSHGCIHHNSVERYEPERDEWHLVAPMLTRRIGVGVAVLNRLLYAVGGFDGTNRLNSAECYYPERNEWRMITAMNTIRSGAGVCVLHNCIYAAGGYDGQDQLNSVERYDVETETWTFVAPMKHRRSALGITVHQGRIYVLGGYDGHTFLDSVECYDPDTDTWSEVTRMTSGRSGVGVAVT

On to `Cc1c2ccc3c1nnn3CCCCCc1cc(Cl)c(c(Cl)c1)C(=O)N1CCc3ccc(cc3C1)C2CC(=O)O` (racemic) [Example 64, [2-[18,30-dichloro-32-methyl-20-oxo-8,9,10,21-tetrazahexacyclo[19.5.3.2^16,19.1^3,7.0^6,10.0^24,28]dotriaconta-1(27),3(32),4,6,8,16(31),17,19(30),24(28),25-decaen-2-yl]acetyl]oxysodium], for which the inhibition at 0.1 µM under setting [1] turned out to be 100%.
The same measure, in the same setting: the same measure for `Cc1c2ccc3c1nnn3CCCCCc1ccc(cc1)C(=O)N1CCc3ccc(cc3C1)C2C(C)C(=O)O` (stereo not drawn) [Example 6, 2-[32-Methyl-20-oxo-8,9,10,21-tetraazahexacyclo[19.5.3.2^16,19.1^3,7.0^6,10.0^24,28]dotriaconta-1(26),3(32),4,6,8,16,18,24,27,30-decaen-2-yl]propanoic acid]: 100%.
With `Cc1c2ccc3c1nnn3CCCCCc1ccc(cc1)C(=O)N1CCc3ccc(cc3C1)C2CC(=O)O` (stereo not drawn) [Example 12, [32-Methyl-20-oxo-8,9,10,21-tetraazahexacyclo[19.5.3.2^16,19.0^3,7.0^6,10.0^24,28]dotriaconta-1(26),3(32),4,6,8,16,18,24,27,30-decaen-2-yl]acetic acid], under setting [1], the “NRF2 binding inhibitory activity (at 100 nM)” value amounted to 100%.
On to `Cc1c2ccc3c1nnn3CCCOCc1ccc(cc1)C(=O)N1CCc3ccc(cc3C1)C2CC(=O)O` (stereo not drawn) [Example 26, [32-Methyl-20-oxo-14-oxa-8,9,10,21-tetraazahexacyclo[19.5.3.2^16,19.1^3,7.0^6,10.0^24,28]dotriaconta-1(26),3(32),4,6,8,16,18,24,27,30-decaen-2-yl]acetic acid], for which the “NRF2 binding inhibitory activity (at 100 nM)” value under setting [2] was 99%.
Take `Cc1oc(=O)oc1COC(=O)CC1c2ccc3c(c2)CN(CC3)C(=O)c2ccc(cc2)COCCCn2nnc3c(C)c1ccc32` (stereo not drawn) [Example 34, (5-Methyl-2-oxo-2H-1,3-dioxol-4-yl)methyl [32-methyl-20-oxo-14-oxa-8,9,10,21-tetraazahexacyclo[19.5.3.2^16,19.1^3,7.0^6,10.0^24,28]dotriaconta-1(26),3(32),4,6,8,16,18,24,27,30-decaen-2-yl]acetate]: under setting [1], the inhibition at 0.1 µM turned out to be 99%.
On the same count and under the same terms, next, `Cc1oc(=O)oc1COC(=O)CC1c2ccc3c(c2)CN(CC3)C(=O)c2ccc(cc2)CCCCCn2nnc3c(C)c1ccc32` (stereo not drawn) [Example 35, (5-Methyl-2-oxo-2H-1,3-dioxol-4-yl)methyl [32-methyl-20-oxo-8,9,10,21-tetraazahexacyclo[19.5.3.2^16,19.1^3,7.0^6,10.0^24,28]dotriaconta-1(26),3(32),4,6,8,16,18,24,27,30-decaen-2-yl]acetate]: 99%; `CCOC(=O)CC1c2ccc3c(c2)CN(CC3)C(=O)c2ccc(cc2)COCCCn2nnc3c(C)c1ccc32` (stereo not drawn) [Example 36, Ethyl [32-methyl-20-oxo-14-oxa-8,9,10,21-tetraazahexacyclo[19.5.3.2^16,19.1^3,7.0^6,10.0^24,28]dotriaconta-1(26),3(32),4,6,8,16,18,24,27,30-decaen-2-yl]acetate]: 15%.
The same measure, in the same setting: next, `Cc1ccc(NC(=O)CC2c3ccc4c(c3)CN(CC4)C(=O)c3ccc(cc3)CCCCCn3nnc4c(C)c2ccc43)cn1` (stereo not drawn) [Example 38, 2-[32-Methyl-20-oxo-8,9,10,21-tetraazahexacyclo[19.5.3.2^16,19.1^3,7.0^6,10.0^24,28]dotriaconta-1(26),3(32),4,6,8,16,18,24,27,30-decaen-2-yl]-N-(6-methylpyridin-3-yl)acetamide]: 79%; `Cc1c2ccc3c1nnn3CCCCCc1ccc(cc1)C(=O)N1CCc3ccc(cc3C1)C2CC(=O)Nc1cccnc1` (stereo not drawn) [Example 39]: 97%; `Cc1c2ccc3c1nnn3CCCOCc1ccc(cc1)C(=O)N1CCc3ccc(cc3C1)C2CC(=O)OC(C)OC(=O)OC1CCCCC1` (stereo not drawn) [Example 40, 1-{[(Cyclohexyloxy)carbonyl]oxy}ethyl[32-methyl-20-oxo-14-oxa-8,9,10,21-tetraazahexacyclo[19.5.3.2^16,19.1^3,7.0^6,10.0^24,28]dotriaconta-1(26),3(32),4,6,8,16,18,24,27,30-decaen-2-yl]acetate]: 82%.
`Cc1c2ccc3c1nnn3CCCOCc1ccc(cc1)C(=O)N1CCc3ccc(cc3C1)C2CC(=O)O` (stereo not drawn) [Example 41, Sodium [32-methyl-20-oxo-14-oxa-8,9,10,21-tetraazahexacyclo[19.5.3.2^16,19.1^3.7.0^6,10.0^24,28]dotriaconta-1(26),3(32),4,6,8,16,18,24,27,30-decaen-2-yl]acetate]: the inhibition at 0.1 µM turned out to be 100%.
Consider `Cc1ccc(NC(=O)CC2c3ccc4c(c3)CN(CC4)C(=O)c3ccc(cc3)COCCCn3nnc4c(C)c2ccc43)cn1` (stereo not drawn) [Example 42], for which the inhibition at 0.1 µM under setting [1] is 60%.
Turning to `Cc1c2ccc3c1nnn3CCCOCc1ccc(cc1)C(=O)N1CCc3ccc(cc3C1)C2C(C)(C)C(=O)O` (stereo not drawn) [Example 56, 2-methyl-2-[32-methyl-20-oxo-14-oxa-8,9,10,21-tetrazahexacyclo[19.5.3.2^16,19.1^3,7.0^6,10.0^24,28]dotriaconta-1(27),3(32),4,6,8,16,18,24(28),25,30-decaen-2-yl]propanoic acid], the “NRF2 binding inhibitory activity (at 100 nM)” value under setting [2] is 99%.
Turning to `Cc1cc2cc(C)c1C(=O)N1CCc3ccc(cc3C1)C(C(C)(C)C(=O)O)c1ccc3c(nnn3CCCOC2)c1C` (stereo not drawn) [Example 59, 2-methyl-2-[18,30,32-trimethyl-20-oxo-14-oxa-8,9,10,21-tetrazahexacyclo[19.5.3.2^16,19.1^3,7.0^6,10.0^24,28]dotriaconta-1(27),3(32),4,6,8,16(31),17,19(30),24(28),25-decaen-2-yl]propanoic acid], the “NRF2 binding inhibitory activity (at 100 nM)” value under setting [1] was 100%.
In the case of `Cc1c2ccc3c1nnn3CCCOCc1cc(Cl)c(c(Cl)c1)C(=O)N1CCc3ccc(cc3C1)C2C(C)(C)C(=O)O` (stereo not drawn) [Example 61, 2-[18,30-dichloro-32-methyl-20-oxo-14-oxa-8,9,10,21-tetrazahexacyclo[19.5.3.2^16,19.1^3,7.0^6,10.0^24,28]dotriaconta-1(27),3(32),4,6,8,16,18,24(28),25,30-decaen-2-yl]-2-methylpropanoic acid], the “NRF2 binding inhibitory activity (at 100 nM)” value under setting [2] is 99%.
With `Cc1c2ccc3c1nnn3CCCCCc1ccc(cc1)C(=O)N1CCc3ccc(cc3C1)C2C(C)(C)C(=O)O` (stereo not drawn) [Example 63, 2-methyl-2-[32-methyl-20-oxo-8,9,10,21-tetrazahexacyclo [19.5.3.2^16,19.1^3,7.0^6,10.0^24,28]dotriaconta-1(27),3(32),4,6,8,16(31),17,19(30),24(28),25-decaen-2-yl]propanoic acid], the “NRF2 binding inhibitory activity (at 100 nM)” value under setting [2] was 46%.
The same measure, in the same setting: next, `Cc1c2ccc3c1nnn3CCCCOc1cc(Cl)c(c(Cl)c1)C(=O)N1CCc3ccc(cc3C1)C2C(C)(C)C(=O)O` (stereo not drawn) [Example 66, 2-[18,30-dichloro-32-methyl-20-oxo-15-oxa-8,9,10,21-tetrazahexacyclo[19.5.3.2^16,19.1^3,7.0^6,10.0^24,28]dotriaconta-1(27),3(32),4,6,8,16(31),17,19(30),24(28),25-decaen-2-yl]-2-methylpropanoic acid]: 94%.
On to `Cc1cc2cc(C)c1C(=O)N1CCc3ccc(cc3C1)C(CC(=O)O)c1ccc3c(nnn3CCCOC2)c1C` (stereo not drawn) [Example 67, [18,30,32-trimethyl-20-oxo-14-oxa-8,9,10,21-tetrazahexacyclo[19.5.3.2^16,19.1^3,7.0^6,10.0^24,28]dotriaconta-1(27),3(32),4,6,8,16,18,24(28),25,30-decaen-2-yl]acetic acid], for which the inhibition at 0.1 µM under setting [1] was 99%.
